Experimental data published in patent US20260265691A1, “METHODS TO IMPROVE THE PERSISTENCE OF DOUBLE NEGATIVE T CELLS” (priority 2022, published 2026).

Key:
[1] = tested on: DNTs; assay: Ex vivo DNT expansion in increasing concentrations of Ide; type: cell-based, human
Description: DNT was obtained and expanded as previously reported in the presence or absence of Ide (Selleckchem). Briefly, blood from healthy donor was collected in sodium heparin containing vacutainers (Becton, Dickinson and Company). Then, CD4^+ and CD8^+ T cells were depleted from healthy donor-derived PBMCs by incubating whole blood with RosetteSep human CD4 and CD8 depletion cocktail (StemCell Technologies) followed by density gradient centrifugation to collect CD4 and CD8 depleted buffy coats.

[2] = tested on: DNTs; assay: Memory status of ex vivo expanded DNTs (CD45RA, CD62L flow cytometry); type: cell-based, human; conditions: end of expansion (day 17)
Description: (FIG. 6A) Representative flow plots showing memory status. […] Tnaive/SCM=CD45RA^+CD62L^+; TCM=CD45RA^−CD62L^+; TEM=CD45RA^−CD62L; Teffector=CD45RA^+CD62L^−. (FIG. 6B) Frequency of DNTs in early memory subset TCM/SCM (CD45RA^+/CD62L^+ and CD45RA^−CD62L^+; left), TEM (CD45RA^−CD62L^−; middle) and TEFF (CD45RA^+CD62L^−; right) from day 7 to day 17 of ex vivo DNT expansion culture. […] Each dot represents DNTs from one donor. The cell number is normalized to day 0 DNT number. […] The expression shown is relative to the expression of housekeeping gene, HPRT. Each paired symbols represent DNTs from one donor. […] Expansion fold relative to the number of DNTs at the start of co-culture was determined after 2 days and 8 days (Left). Absolute number of viable DNTs from each treatment group after co-culture with OCI-AML3 (Right). […] (FIG. 6F) Memory status of DNTs 8 days post co-culture with OCI-AML3 determined by flow-cytometry. […]

[3] = tested on: DNTs; assay: Exhaustion marker expression on DNTs (flow cytometry); type: cell-based, human
Excerpt: FIGS. 7A-7G. […] Representative flow plot is shown (Left). The numbers represent the MFI value (Right). […] Horizontal bars represent the mean relative MFI and error bars show SEM. (FIG. 7C) Expression of exhaustion associated transcription factor gene, TOX, relative to the expression of housekeeping gene, HPRT, determined by qPCR. Each paired symbol represents DNTs from one individual. […] Subsequently, cells were intracellularly stained with anti-TNFα and anti-IFNγ antibodies, and the expression levels were determined by flow cytometry. Representative flow plot is shown (Left). The numbers represent the frequency in each gate. […] The result shown is a summary of three experiments. (FIG. 7E) Frequency of viable ctrl-DNTs and Ide-DNTs on day 17 of expansion. The cell viability was determined with Annexin V and 7-AAD staining using flow cytometry. […] (FIG. 7F) Viability of ctrl-DNTs and Ide-DNTs after co-culture with primary AML cells from 7 different patients. […]
The following antibodies were used in this study: CD4-FITC or -APCcy7, CD56-PE, CD3-PEcy7 or -Alexa Flour700, CD8-APC or -APCcy7, CD45RA-FITC, CD95-APC, CD62L-PEcy7, CTLA4-PE, LAG3-PEcy7, TIM3-APC, CD45-FITC or -APCcy7, CD34-PE, CD33-APC, AnnexinV-Pacific Blue or -FITC, 7AAD, IFNy-PE, TNFα-APC and DAPI. […] Data were obtained using Attune NXT flow Cytometer (ThermoFisher) and analyzed with Flowjo software (Tree Star, Inc.).

[4] = tested on: DNTs; assay: DNT viability (Annexin V, 7-AAD flow cytometry); type: cell-based, human; conditions: 5 healthy donors, day 17
Description: The result shown is a summary of three experiments. […] The cell viability was determined with Annexin V and 7-AAD staining using flow cytometry. […] Subsequently, the viability of DNTs (gated on CD45^high CD3^+CD33/CD34^−) were determined using flow cytometry. […] Each paired symbol represents DNTs from one donor.
and viability of effector cells was calculated by 100-% AnnexinV^+ in cultures of DNTs with AML.

[5] = tested on: DNTs; assay: CD69 expression on ex vivo expanded DNTs; type: cell-based, human; conditions: 0, 1 and 5 μM Ide; day 7, 10 and 17
Description: Frequency of CD69 expression from day 7, 10 and 17 ex vivo expanded DNTs in 0, 1 and 5 μM of de.

[6] = autoimmune toxicities, infection, diarrhea, skin problems; cited from earlier work
[7] = tested on: DNTs; assay: Effect of JQ1 on memory status of DNTs (flow cytometry of CD27, CD62L, CD45RA); type: cell-based, human; conditions: JQ1 0.075, 0.15, 0.30 μM for 20 days; day 14, 17 and 20 of DNT expansion
Excerpt: JQ1 was given to the culture on day 0, 3, 7, 10, 14, and 17.

[8] = tested on: conventional T cells; conditions: Kagoya et al. 2016; cited from earlier work

Structure (SMILES)	DNT viability at the end of cell expansion cultures ([1]; 1 μM Ide)	cell yield at the end of expansion compared to vehicle control ([1]; 0.1-1.0 μM Ide)	DNT expansion ([1]; 3.0-10.0 μM of Ide)	TCM/TSCM cell number, fold higher compared to ctrl-DNTs [2] [fold]	expression of inhibitory receptor Lag3 on DNTs compared to ctrl-DNTs [3]	expression of inhibitory receptor Tim3 on DNTs compared to ctrl-DNTs [3]	viability of DNTs after expansion [4]	CD69 expression (DNT activation signal) [5]	adverse events associated with Ide-treatment [6]	memory formation of DNTs across treatment groups [7]	inducing memory phenotype on conventional T cells [8]
CC[C@H](Nc1ncnc2[nH]cnc12)c1nc2cccc(F)c2c(=O)n1-c1ccccc1 [Ide, 5-fluoro-3-phenyl-2-[(1S)-1-(7H-purin-6-ylamino)propyl]quinazolin-4-one]	highest DNT viability	improved cell yield	compromised	3.87±0.82	reduced the expression	reduced the expression	significantly improved the viability	reduced levels of CD69 expression in a dose-dependent manner	severe adverse events	–	–
Cc1sc2c(c1C)C(c1ccc(Cl)cc1)=N[C@@H](CC(=O)OC(C)(C)C)c1nnc(C)n1-2 [JQ1]	–	–	–	–	–	–	–	–	–	no biologically meaningful differences	top hit amongst 31 chemicals tested
